{
  "source": "patent US20240009150A1",
  "about": "“CAPSAICYNS IN THE TREATMENT OF LEAKY GUT” (AXICHEM AB [SE]/[SE], priority 2020, published 2024)",
  "key": {"[1]": {"conditions": "Rage Paulsen et al., Toxicology Research and Application 2018; cited from earlier work"}, "[2]": {"tested_on": "P. aeruginosa (ATCC® 15442)", "assay": "Inhibition of biofilm formation, crystal violet staining assay", "format": "cell-based, Pseudomonas aeruginosa", "conditions": "for Biofilm (OD 595 nm): 24 hr; for Biofilm (OD 595 nm) / biofilm formed (CVSA), in words: 30° C.; for inhibition of biofilm formation, conclusion in words: any dose tested; for biofilm formed (CVSA), in words: concentrations less than 125 ug/ml", "description": "(§1) A stock solution of 1000 ug of V and capsaicin was prepared by dissolving 1000 μg in 100 μl of ethanol and 900 μl of sterile water. The stock solutions were sequentially diluted with double volumes of solvent (10% aqueous ethanol solution) to yield 500/125//31.25/7.81 μg/ml test solutions.\n(§2) P. aeruginosa (ATCC® 15442) was used to determine the biofilm inhibition activity. Inducer N-hexanoyl homoserine lactone (C6-HSL) was purchased from Sigma-Aldrich. ATCC® 15442 was cultivated in Luria-Bertani (LB) medium (LB, 5 g yeast extract, 10 g tryptone, 5 g NaCl, 1 L water) at 30° C. overnight under aerobic conditions.\n(§3) Biofilm formation was quantified with modifications using the method described by Stepanovic et al. (Journal of Microbiological Methods, 2000, 40(2), 175-19) with modifications. Using a 96-well microplate duplicate the test solutions were filled at the above selected doses. Cultures were grown for 18 hr in LB at 30° C. and adjusted to OD 0.1 at 600 nm. 20 μL of the culture were added into each well and the remainder of the volume to 200 μL per well was filled with LB. Unused external wells were filled with 200 μL of sterile water to prevent evaporation.\n(§4) After 24 hr of incubation, supernatants were discarded, and the wells were washed three times with 200 μL of sterile phosphate buffered saline (PBS). Bacteria adhered to the wells were fixed with 200 μL of methanol for 15 min, the methanol was discarded, and the plates dried at 25° C.\n(§5) Each well was stained with 200 μL of 0.3% (w/v) crystal violet solution for 5 min at 25° C. Crystal violet excess was pipetted out, and the wells were rinsed five times with sterile PBS. 200 μL of 33% (v/v) glacial acetic acid were added to the wells for 30 min to solubilise the dye adhered to the cell walls. Optical density (OD) was measured at 595 nm using a microplate spectrophotometer as a direct measure of biofilm formation. P. aeruginosa in 3% DMSO will be used as the negative control."}, "[3]": {"tested_on": "Salmonella enterica subsp. enterica serovar Paratyphi C (ATCC® BAA 1714™)", "assay": "Inhibition of biofilm formation, crystal violet staining assay (Example 5)", "format": "cell-based", "conditions": "for Biofilm (OD 595 nm): 24 hr; for Biofilm (OD 595 nm) / biofilm formed (CVSA), in words: 30° C.; for biofilm formed (CVSA), in words: 32 and 8 μg/ml", "description": "as §3, §4, §5\nas §1, with “μg” for “ug”, “phenylcapsaicin” for “V”, “double and then quadruple” for “double”, “500/125/31.25 (32)/7.81 (8)” for “500/125//31.25/7.81”\nas §2, with “ATCC® BAA 1714™” for “P. aeruginosa (ATCC® 15442)”, “BAA 1714™” for “15442”, “37°” for “30°”\nCrystal violet staining assay was performed as in Experiment 3, using ATCC® BAA 1714™ in 3% DMSO as the control."}},
  "note": "“Also recorded” adds a separate entry of the source. Marks after values point to notes of the source that are not given here.",
  "data": [
    {"smiles": "COc1cc(CNC(=O)CCCCC#Cc2ccccc2)ccc1O", "note": "[Phenylcapsaicin, N-[(4-hydroxy-3-methoxyphenyl)methyl]-7-phenylhept-6-ynamide]", "values": [
      {"measurement": "safety with regards to gene mutations and chromosomal damage", "setting": "[1]", "value": "safe"},
      {"measurement": "systemic toxicity", "setting": "[1]", "value": "low systemic toxicity"},
      {"measurement": "Biofilm (OD 595 nm)", "setting": "[2]; 7.81 μg/mL", "value": "1.7^b OD 595 nm"},
      {"measurement": "Biofilm (OD 595 nm)", "setting": "[2]; 31.125 μg/mL", "value": "1.3^b OD 595 nm"},
      {"measurement": "Biofilm (OD 595 nm)", "setting": "[2]; 125 μg/mL", "value": "1.9^b OD 595 nm"},
      {"measurement": "inhibition of biofilm formation, conclusion in words", "setting": "[2]", "value": "potent inhibitor of biofilm formation"},
      {"measurement": "biofilm formed (CVSA), in words", "setting": "[2]", "value": "significantly reduced"},
      {"measurement": "Biofilm (OD 595 nm)", "setting": "[3]; 7.81 μg/mL", "value": "2.9^b OD 595 nm"},
      {"measurement": "Biofilm (OD 595 nm)", "setting": "[3]; 31.125 μg/mL", "value": "3.2^b OD 595 nm"},
      {"measurement": "biofilm formed (CVSA), in words", "setting": "[3]", "value": "significantly reduced; also recorded: good inhibitor of biofilm formation"}
    ]},
    {"smiles": "COc1cc(CNC(=O)CCCC/C=C/C(C)C)ccc1O", "note": "[Capsaicin, (E)-N-(4-hydroxy-3-methoxybenzyl)-8-methylnon-6-enamide, reference compound]", "values": [
      {"measurement": "Biofilm (OD 595 nm)", "setting": "[2]; 7.81 μg/mL", "value": "7.1^a OD 595 nm"},
      {"measurement": "Biofilm (OD 595 nm)", "setting": "[2]; 31.125 μg/mL", "value": "7.0^a OD 595 nm"},
      {"measurement": "Biofilm (OD 595 nm)", "setting": "[2]; 125 μg/mL", "value": "7.2^a OD 595 nm"},
      {"measurement": "inhibition of biofilm formation, conclusion in words", "setting": "[2]", "value": "did not exhibit any biofilm formation inhibition"},
      {"measurement": "biofilm formed (CVSA), in words", "setting": "[2]", "value": "did not show any reduction of biofilm formation"},
      {"measurement": "Biofilm (OD 595 nm)", "setting": "[3]; 7.81 μg/mL", "value": "8.5^a OD 595 nm"},
      {"measurement": "Biofilm (OD 595 nm)", "setting": "[3]; 31.125 μg/mL", "value": "8.1^a OD 595 nm"},
      {"measurement": "biofilm formed (CVSA), in words", "setting": "[3]", "value": "did not show any reduction of biofilm formation"},
      {"measurement": "biofilm formation inhibition, conclusion in words", "setting": "[3]; any dose tested", "value": "did not exhibit any biofilm formation inhibition"}
    ]}
  ]
}
